Series [1] can be described thus: Cmax in rat at 6 mg/kg, po. Type of series: ADME, organism-based. Further details: dose 6 mg/kg, route oral. Particulars: in vivo.
Series [2] relates to Rattus norvegicus. Briefly: (§1) Oral bioavailability in rat at 6 mg/kg. In kind it is ADME, organism-based. The conditions noted are these: in vivo.
A short description of series [3]: Cmax in rat at 2 mg/kg, iv. In kind it is ADME, organism-based. Particulars: in vivo. Further details: dose 2 mg/kg, route intravenous.
Series [4] is described as follows: Plasma concentration in rat at 6 mg/kg, po after 24 hrs. In kind it is ADME, organism-based.
The nature of series [5]: as §1. In kind it is ADME, organism-based. The conditions noted are these: in vivo.
A short description of series [6]: AUC in rat at 6 mg/kg, po. In kind it is ADME, organism-based. Particulars: in vivo.
The nature of series [7]: Drug uptake in rat liver at 6 mg/kg, po after 24 hrs. In kind it is ADME, organism-based. The conditions noted are these: read-out: Drug uptake.
Series [8] is described as follows: Drug uptake in rat liver at 6 mg/kg, po after 48 hrs. Type of series: ADME, organism-based. The conditions noted are these: read-out: Drug uptake.
Series [9] is described as follows: Volume of distribution at steady state in rat at 2 mg/kg, iv or 6 mg/kg, po. Type of series: ADME, organism-based. The conditions noted are these: in vivo, read-out: Vdss.
Series [10] is described as follows: Volume of distribution at steady state in dog at 1 mg/kg, iv or 3 mg/kg, po. In kind it is ADME, organism-based, Canis lupus familiaris. The conditions noted are these: in vivo, read-out: Vdss.
Series [11] in a line: Volume of distribution at steady state in cynomolgus monkey at 1 mg/kg, iv or 3 mg/kg, po. Particulars: in vivo, read-out: Vdss. In kind it is ADME, organism-based, Macaca fascicularis.
Series [12] can be described thus: Oral bioavailability in cynomolgus monkey at 3 mg/kg. In kind it is ADME, organism-based, Macaca fascicularis. The conditions noted are these: in vivo.
Series [13] in a line: AUC in cynomolgus monkey at 3 mg/kg, po. In kind it is ADME, organism-based, Macaca fascicularis. The conditions noted are these: in vivo.
For series [14], the system named is Canis familiaris. The series is described as follows: Oral bioavailability in dog at 3 mg/kg. Type of series: ADME, organism-based, Canis lupus familiaris. The conditions noted are these: in vivo.
Series [15] deals with Canis familiaris. The series is described as follows: AUC in dog at 3 mg/kg, po. Type of series: ADME, organism-based, Canis lupus familiaris. The conditions noted are these: in vivo.

The values below come from ChEMBL document CHEMBL4251547, “The discovery of a pan-genotypic, primer grip inhibitor of HCV NS5B polymerase” (Medchemcomm, 2017).

`CNC(=O)c1c(-c2ccc(F)cc2)oc2nc(NCC(F)(F)F)c(-c3cccc(C(=O)NC(C)(C)c4ncon4)c3)cc12`: the Cmax worked out at 600 nM in series [1] and 2500 nM in series [3]. The same molecule displayed a F in series [2] of 31%. In addition, the concentration at 24 h in series [4] amounted to 39 nM.
Take `CNC(=O)c1c(-c2ccc(F)cc2)oc2nc(CCC(F)(F)F)c(-c3cccc(C(=O)NC45CC(C4)C5)c3)cc12`: the values for the Cmax in series [1] and in series [3] were 900 nM and 3200 nM, respectively. The bioavailability in series [5] was determined as 44%. The molecule further showed an AUC in [6] of 10 µM·h. Further, the concentration at 24 h in [7] turned out to be 900 nM; in [4] it was 160 nM. For the same molecule, the concentration at 48 h in series [8] is 820 nM.
Consider `CCNc1nc2oc(-c3ccc(F)cc3)c(C(=O)NC)c2cc1-c1cccc(C(=O)NC(C)(C)C)c1`, for which the Cmax was determined as 600 nM in series [1] and 1700 nM in series [3]. The same molecule gave a bioavailability in [5] of 64%. In series [6], this molecule registered an AUC of 18 µM·h. Besides, the concentration at 24 h in series [7] turned out to be 1600 nM; in series [4], 560 nM.
As for `CNC(=O)c1c(-c2ccc(F)cc2)oc2nc(CCC(F)(F)F)c(-c3cccc(C(=O)NC(C)(C)c4ncon4)c3)cc12`, the Vd in series [9] worked out at 5.6 L/kg; in [10] it was 3.3 L/kg; in series [11] it was 2.8 L/kg. The Cmax turned out to be 1100 nM in series [1] and 1700 nM in [3]. The figures for the bioavailability in [12] and in [5] were 61% and 58%, respectively. The results for the AUC in [13], in series [6] and in series [15] were 8.3 µM·h, 0.15 to 13 µM·h and 25 µM·h, respectively. Besides, the F in [14] is 85%. Also, the concentration at 24 h in [4] was 150 nM.

A word on the Cmax: it is the highest concentration seen after dosing. The bioavailability is the share of a dose that reaches the circulation, judged against a reference dose that is usually intravenous. Usually AUC stands for the area under the concentration-time curve, a measure of exposure.
